Two compounds from patent publication US20060229255A1, “Identification of n-alkylglycine trimers for induction of apoptosis” (priority 2003, published 2006) can be followed below.

One experiment addresses cycA-Cdk2 (Homo sapiens, UniProt P24941). Nature of the experiment: In vitro kinase assay for Cdk2. It counts as biochemical. The following applies: 3 μM or 30 μM. The procedure: We had observed that cycA protein levels and pRb hypophosphorylation decrease in cell extracts of N10-13-10C or N13-13-10C treated cells (FIG. 8). To assess whether these compounds were direct inhibitors of Cdk2 activity, in vitro kinase assays for Cdk2 were performed.
Kinase assays for testing of Cdk2/CycA-E kinase activity. ELISA plates were blocked with 200 μl of blocking solution (PBS containing 1% BSA, 0.02% Tween and 0.02% sodium Azide) overnight at 4° C. Plates were then subsequently washed 3 times, 5 min each with 100 μl of washing solution (PBS containing 0.02% Tween and 0.02% sodium Azide). Plates were then dried during 2-4 h at room temperature. Kinase assay was performed in kinase buffer (Hepes 25 mM pH 7.4 and MgCl2 10 mM) containing 4 μg of histone H1, 30 μM ATP, 2 mM DTT, 0.1 μl of ATP-P^32, 800 nM GST-CDK2, and 800 nM of GST-cyclin A in a final volume of 60 μl. Assays were carried out in the presence or absence of different concentrations of peptide mixtures to be checked. A inhibitory control was performed adding 800 nM of p21 to the reaction media. Mixtures were incubated for 30 min at 37° C. After incubation, 50 μl of each mixture was filtered in nitrocellulose membranes placed in a dot blot apparatus. […] The radioactivity associated to the membranes was detected with a “Phosphor-imager”.

The next experiment concerns T98 g cells. Nature of the experiment: Cell cycle DNA analysis in synchronized cells. It counts as cell-based, human. The following applies: 19 h after serum re-addition, 100 μM. The procedure:
Experimentally this finding was substantiated analysing the compounds in a cellular model with synchronized cells. T98 g cells were arrested in G1 phase (82%) by serum starvation in MCDB 105 medium after 72 h. Upon 10% serum re-addition, cells were allowed to re-enter into the cell cycle. More than 50% of the cells were in the S-phase, and only 20% remained in G1 after 19 h of FCS introduction. Addition of N10-13-10C or N13-13-10C to the cultures at the moment of serum addition restrained S-phase entry (FIG. 7. A). Around 40% of the cells were retained in G1. In conclusions both N10-13-10C and N13-13-10C were able to induce a G1 arrest either in asynchronous or in synchronized cell cultures, as determined by cell cycle DNA analysis. In comparison, Olomucine which is a cdk2 inhibitor, retained 80% of the cells in G1. The topoisomerase II inhibitor etoposide treated cells were arrested in S phase of the cell cycle (85% of the cell population).
DNA analysis. Floating and adherent cells treated with the compounds were collected by trypsinization and washed twice with PBS. The cells were permeabilized overnight at −20° C. with ice-cold ethanol 70%. The cells were washed in PBS, adjusted at 0.5×10^6 cells/ml and incubated with 20 μg/ml Propidium Iodide and 2 μl/ml RNase DNase-free for 30 min at 30° C. Cells were maintained overnight at 4° C. and then analysed by flow cytometry. Flow cytometric experiments were carried out using an Epics XL flow cytometer (Coulter Corporation, Hialeah, Fla.). The instrumet was set up with the standard configuration: excitation of the sample was done using an standard 488 nm air-cooled argon-ion laser at 15 mW power. Forward scatter (FSC), side scatter (SSC) and red (620 nm) fluorescence for PI were adquired. Optical alignement was based on optimized signal from […] fluorescent beads (Immunocheck, Epics Division). Time was used as a control of the stability of the instrument. Red fluorescence was projected on a 1024 monoparametrical histogram. Aggregates were excluded gating single cells by their area vs. peak fluorescence signal. DNA analysis (Ploidy analysis) on single fluorescence histograms was done using Multicycle software (Phoenix Flow Systems, San Diego, Calif.).
FIG. 7. […] (A) T98 g cells were synchronized and reinitiated for 19 h with FCS alone or in combination with N10-13-10C (100 μM), N13-13-10C (100 μM), Olomucine (100 μM), etoposide (5 μM) or Taxol (30 nM). Cell cycle profile was assessed by propidium iodide DNA staining and analyzed by flow cytometry. The fraction of cells with G1, S, G2/M DNA content are shown as % of total cell population. (B. and C.) Synchronized T98 g cells were reinitiated with FCS alone or in combination with serial dilutions of N4-13-10C, N5-13-10C, N10-13-10C, N13-13-10C, Olomucine or etoposide for 19 h and labeled with BrdU during the last 2 h. BrdU incorporation was assessed by ELISA using anti-BrdU antibodies. An arbitrary value of 100% was assigned to the densiometric rate of DNA synthesis by untreated cultures and all other values are depicted relative to that reference. The values are means of three (n=3) replicates.

As for `COc1ccc(CCN(CC(=O)N(CCc2ccccc2)CC(N)=O)C(=O)CNCCc2ccccc2)cc1` [N10-13-10C], the “Inhibition of cycA-Cdk2 kinase activity” value on cycA-Cdk2 was “Neither of both compounds was able to inhibit”. In addition, the “Cells retained in G1” value with T98 g cells is “Around 40%”.
For `COc1ccc(CCNCC(=O)N(CCc2ccc(OC)cc2)CC(=O)N(CCc2ccccc2)CC(N)=O)cc1` [N13-13-10C], in that order: “Neither of both compounds was able to inhibit” and “Around 40%”.
